{"source": "patent US8178658B2", "about": "(Dow AgroSciences, LLC, priority 2008, dated 2012)", "key": {"[1]": {"test_system": "beet armyworm (BAW; Spodoptera exigua: Lepidoptera)", "test": "96-well microtiter plate-based high throughput (HTS) diet bioassay on beet armyworm (BAW HTS)", "type": "in vivo", "details": "for BAW HTS: BAW eggs, 12 μg test compound per well, mortality at 6 d post-treatment, mortality class; for pest or weed control at 12 µg/well, 12 µg/well: Spodoptera exigua, 144 h, read-out: BAW HTS", "outline": "(§1)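 HTS: eggs on diet topped with 12 μg cpd/well; dark, 29° C; mortality day 6; mean of 6 reps. Tray: 3–5 L2 larvae/well; diet dosed 50 μg/cm^2; 25° C, 14:10 L:D; 6 d; mean of 8 wells. Scored as ≥50% mortality or not.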"}, "[2]": {"test_system": "beet armyworm (BAW; Spodoptera exigua: Lepidoptera)", "test": "128-well diet tray assay on beet armyworm (BAW 50)", "type": "in vivo", "details": "for BAW 50 ug/cm2: 128-well diet tray assay, 50 μg/cm^2 of test compound on diet, second instar BAW larvae, mortality class; for pest or weed control at 50 µg/cm2, 50 µg/cm2: Spodoptera exigua, 144 h, read-out: BAW 50 ug/cm2", "outline": "as §1"}, "[3]": {"details": "96-well microtiter plate HTS diet assay"}}, "data": [{"compound": "C=C(C)c1nc(-c2ccc(NC(=O)O[C@@H]3O[C@@H](C)[C@H](OC)[C@@H](OCC)[C@H]3OC)cc2)nn1-c1ccc(OC(F)(F)F)cc1", "note": "[Compound 220]", "values": [{"measurement": "BAW HTS", "setting": "[1]; 96-well HTS diet assay", "result": "B (either (1) the compound was tested and less than 50 percent mortality was observed or (2) the compound was not tested)"}, {"measurement": "BAW HTS", "setting": "[1]; [3]", "result": "B (either (1) the compound was tested and less than 50 percent mortality was observed or (2) the compound was not tested)"}, {"measurement": "BAW 50 ug/cm2", "setting": "[2]", "result": "A (the compound was tested and at least 50 percent mortality was observed)"}]}, {"compound": "CCO[C@@H]1[C@@H](OC)[C@H](C)O[C@@H](OC(=O)Nc2ccc(-c3nc(CCSC)n(-c4ccc(OC(F)(F)F)cc4)n3)cc2)[C@@H]1OC", "note": "[Compound 221]", "values": [{"measurement": "BAW HTS", "setting": "[1]; 96-well HTS diet assay", "result": "B (either (1) the compound was tested and less than 50 percent mortality was observed or (2) the compound was not tested)"}, {"measurement": "BAW HTS", "setting": "[1]; [3]", "result": "B (either (1) the compound was tested and less than 50 percent mortality was observed or (2) the compound was not tested)"}, {"measurement": "BAW 50 ug/cm2", "setting": "[2]", "result": "A (the compound was tested and at least 50 percent mortality was observed)"}]}, {"compound": "CCO[C@@H]1[C@@H](OC)[C@H](C)O[C@@H](OC(=O)Nc2ccc(-c3nc(C(F)(F)F)n(-c4ccc(OC(F)(F)F)cc4)n3)cc2)[C@@H]1OC", "note": "[Compound 222]", "values": [{"measurement": "BAW HTS", "setting": "[1]; 96-well HTS diet assay", "result": "B (either (1) the compound was tested and less than 50 percent mortality was observed or (2) the compound was not tested)"}, {"measurement": "BAW HTS", "setting": "[1]; [3]", "result": "B (either (1) the compound was tested and less than 50 percent mortality was observed or (2) the compound was not tested)"}, {"measurement": "BAW 50 ug/cm2", "setting": "[2]", "result": "A (the compound was tested and at least 50 percent mortality was observed)"}]}, {"compound": "CCO[C@@H]1[C@@H](OC)[C@H](C)O[C@@H](OC(=O)Nc2ccc(-c3ncn(-c4ccc(OC(F)(F)F)cc4)n3)cc2Br)[C@@H]1OC", "note": "[Compound 223]", "values": [{"measurement": "BAW HTS", "setting": "[1]; 96-well HTS diet assay", "result": "B (either (1) the compound was tested and less than 50 percent mortality was observed or (2) the compound was not tested)"}, {"measurement": "BAW HTS", "setting": "[1]; [3]", "result": "B (either (1) the compound was tested and less than 50 percent mortality was observed or (2) the compound was not tested)"}, {"measurement": "BAW 50 ug/cm2", "setting": "[2]", "result": "A (the compound was tested and at least 50 percent mortality was observed)"}]}, {"compound": "CCO[C@@H]1[C@@H](OC)[C@H](C)O[C@@H](OC(=O)Nc2ccc(-c3ncn(-c4ccc(OC(F)(F)C(F)(F)F)cc4)n3)cc2Br)[C@@H]1OC", "note": "[Compound 224]", "values": [{"measurement": "BAW HTS", "setting": "[1]; 96-well HTS diet assay", "result": "B (either (1) the compound was tested and less than 50 percent mortality was observed or (2) the compound was not tested)"}, {"measurement": "BAW HTS", "setting": "[1]; [3]", "result": "B (either (1) the compound was tested and less than 50 percent mortality was observed or (2) the compound was not tested)"}, {"measurement": "BAW 50 ug/cm2", "setting": "[2]", "result": "A (the compound was tested and at least 50 percent mortality was observed)"}]}, {"compound": "CCO[C@@H]1[C@@H](OC)[C@H](C)O[C@@H](OC(=O)Nc2ccc(-c3ncn(-c4ccc(OC(F)(F)C(F)(F)C(F)(F)F)cc4)n3)cc2)[C@@H]1OC", "note": "[Compound 225]", "values": [{"measurement": "BAW HTS", "setting": "[1]; 96-well HTS diet assay", "result": "B (either (1) the compound was tested and less than 50 percent mortality was observed or (2) the compound was not tested)"}, {"measurement": "BAW HTS", "setting": "[1]; [3]", "result": "B (either (1) the compound was tested and less than 50 percent mortality was observed or (2) the compound was not tested)"}, {"measurement": "BAW 50 ug/cm2", "setting": "[2]", "result": "A (the compound was tested and at least 50 percent mortality was observed)"}]}, {"compound": "CCO[C@@H]1[C@@H](OC)[C@H](C)O[C@@H](OC(=O)Nc2ccc(-n3c(C(=O)OC)nn(-c4ccc(OC(F)(F)F)cc4)c3=O)cc2)[C@@H]1OC", "note": "[Compound 226]", "values": [{"measurement": "BAW HTS", "setting": "[1]; 96-well HTS diet assay", "result": "B (either (1) the compound was tested and less than 50 percent mortality was observed or (2) the compound was not tested)"}, {"measurement": "BAW HTS", "setting": "[1]; [3]", "result": "B (either (1) the compound was tested and less than 50 percent mortality was observed or (2) the compound was not tested)"}, {"measurement": "BAW 50 ug/cm2", "setting": "[2]", "result": "B (either (1) the compound was tested and less than 50 percent mortality was observed or (2) the compound was not tested)"}]}, {"compound": "CCO[C@@H]1[C@@H](OC)[C@H](C)O[C@H](OC(=O)Nc2ccc(-n3c(C(=O)OC)nn(-c4ccc(OC(F)(F)F)cc4)c3=O)cc2)[C@@H]1OC", "note": "[Compound 227]", "values": [{"measurement": "BAW HTS", "setting": "[1]; 96-well HTS diet assay", "result": "B (either (1) the compound was tested and less than 50 percent mortality was observed or (2) the compound was not tested)"}, {"measurement": "BAW HTS", "setting": "[1]; [3]", "result": "B (either (1) the compound was tested and less than 50 percent mortality was observed or (2) the compound was not tested)"}, {"measurement": "BAW 50 ug/cm2", "setting": "[2]", "result": "B (either (1) the compound was tested and less than 50 percent mortality was observed or (2) the compound was not tested)"}]}, {"compound": "CCO[C@@H]1[C@@H](OC)[C@H](C)O[C@@H](OC(=O)Nc2ccc(-n3cnn(-c4ccc(OC(F)(F)F)cc4)c3=O)cc2)[C@@H]1OC", "note": "[Compound 228]", "values": [{"measurement": "BAW HTS", "setting": "[1]; 96-well HTS diet assay", "result": "B (either (1) the compound was tested and less than 50 percent mortality was observed or (2) the compound was not tested)"}, {"measurement": "BAW HTS", "setting": "[1]; [3]", "result": "B (either (1) the compound was tested and less than 50 percent mortality was observed or (2) the compound was not tested)"}, {"measurement": "BAW 50 ug/cm2", "setting": "[2]", "result": "B (either (1) the compound was tested and less than 50 percent mortality was observed or (2) the compound was not tested)"}]}, {"compound": "CO[C@@H]1[C@@H](OC)[C@H](C)O[C@@H](OC(=O)Nc2ccc(-n3cnc(-c4ccc(C(F)(F)F)cc4)n3)cc2)[C@@H]1OC", "note": "[Compound 229]", "values": [{"measurement": "BAW HTS", "setting": "[1]; 96-well HTS diet assay", "result": "A (the compound was tested and at least 50 percent mortality was observed)"}, {"measurement": "BAW HTS", "setting": "[1]; [3]", "result": "A (the compound was tested and at least 50 percent mortality was observed)"}, {"measurement": "BAW 50 ug/cm2", "setting": "[2]", "result": "A (the compound was tested and at least 50 percent mortality was observed)"}]}, {"compound": "CO[C@@H]1[C@@H](OC)[C@H](C)O[C@@H](OC(=O)Nc2ccc(-c3nnc(-c4ccc(Cl)cc4Cl)o3)cc2)[C@@H]1OC", "note": "[Compound 230]", "values": [{"measurement": "BAW HTS", "setting": "[1]; 96-well HTS diet assay", "result": "B (either (1) the compound was tested and less than 50 percent mortality was observed or (2) the compound was not tested)"}, {"measurement": "BAW HTS", "setting": "[1]; [3]", "result": "B (either (1) the compound was tested and less than 50 percent mortality was observed or (2) the compound was not tested)"}, {"measurement": "BAW 50 ug/cm2", "setting": "[2]", "result": "A (the compound was tested and at least 50 percent mortality was observed)"}]}, {"compound": "CO[C@@H]1[C@@H](OC)[C@H](C)O[C@@H](OC(=O)Nc2ccc(-c3ccnc(-c4ccc(C(F)(F)F)cc4)n3)cc2)[C@@H]1OC", "note": "[Compound 232, {4-[2-(4-trifluoromethylphenyl)-pyrimidin-4-yl]-phenyl}-carbamic acid (2S,3R,4R,5S,6S)-3,4,5-trimethoxy-6-methyl-tetrahydropyran-2-yl ester]", "values": [{"measurement": "BAW HTS", "setting": "[1]; [3]", "result": "A (the compound was tested and at least 50 percent mortality was observed)"}, {"measurement": "pest or weed control at 12 µg/well, 12 µg/well", "setting": "[1]", "result": "> 50", "unit": "%"}, {"measurement": "BAW 50 ug/cm2", "setting": "[2]", "result": "A (the compound was tested and at least 50 percent mortality was observed)"}, {"measurement": "pest or weed control at 50 µg/cm2, 50 µg/cm2", "setting": "[2]", "result": "> 50", "unit": "%"}]}, {"compound": "CO[C@@H]1[C@@H](OC)[C@H](C)O[C@@H](OC(=O)Nc2ccc(-c3cc(C(F)(F)C(F)(F)C(F)(F)F)nc(-c4ccc(C(F)(F)F)cc4)n3)cc2)[C@@H]1OC", "note": "[Compound 233]", "values": [{"measurement": "BAW HTS", "setting": "[1]; 96-well HTS diet assay", "result": "B (either (1) the compound was tested and less than 50 percent mortality was observed or (2) the compound was not tested)"}, {"measurement": "BAW HTS", "setting": "[1]; [3]", "result": "B (either (1) the compound was tested and less than 50 percent mortality was observed or (2) the compound was not tested)"}, {"measurement": "BAW 50 ug/cm2", "setting": "[2]", "result": "A (the compound was tested and at least 50 percent mortality was observed)"}]}, {"compound": "COc1ccc(-c2nccc(-c3ccc(NC(=O)O[C@@H]4O[C@@H](C)[C@H](OC)[C@@H](OC)[C@H]4OC)cc3)n2)cc1", "note": "[Compound 234, {4-[2-(4-methoxyphenyl)-pyrimidin-4-yl]-phenyl}-carbamic acid (2S,3R,4R,5S,6S)-3,4,5-trimethoxy-6-methyl-tetrahydropyran-2-yl ester]", "values": [{"measurement": "BAW HTS", "setting": "[1]; [3]", "result": "B (either (1) the compound was tested and less than 50 percent mortality was observed or (2) the compound was not tested)"}, {"measurement": "pest or weed control at 12 µg/well, 12 µg/well", "setting": "[1]", "result": "< 50", "unit": "%"}, {"measurement": "BAW 50 ug/cm2", "setting": "[2]", "result": "B (either (1) the compound was tested and less than 50 percent mortality was observed or (2) the compound was not tested)"}, {"measurement": "pest or weed control at 50 µg/cm2, 50 µg/cm2", "setting": "[2]", "result": "< 50", "unit": "%"}]}, {"compound": "CO[C@@H]1[C@@H](OC)[C@H](C)O[C@@H](OC(=O)Nc2ccc(-c3cc(C(F)(F)F)nc(-c4ccc(C(F)(F)F)cc4)n3)cc2)[C@@H]1OC", "note": "[Compound 235]", "values": [{"measurement": "BAW HTS", "setting": "[1]; 96-well HTS diet assay", "result": "A (the compound was tested and at least 50 percent mortality was observed)"}, {"measurement": "BAW HTS", "setting": "[1]; [3]", "result": "A (the compound was tested and at least 50 percent mortality was observed)"}, {"measurement": "BAW 50 ug/cm2", "setting": "[2]", "result": "B (either (1) the compound was tested and less than 50 percent mortality was observed or (2) the compound was not tested)"}]}, {"compound": "CCCO[C@@H]1[C@@H](OC)[C@H](C)O[C@@H](OC(=O)Nc2ccc(-c3ncc(-c4ccc(OC(F)(F)F)cc4)cn3)cc2)[C@@H]1OC", "note": "[Compound 236]", "values": [{"measurement": "BAW HTS", "setting": "[1]; 96-well HTS diet assay", "result": "B (either (1) the compound was tested and less than 50 percent mortality was observed or (2) the compound was not tested)"}, {"measurement": "BAW HTS", "setting": "[1]; [3]", "result": "B (either (1) the compound was tested and less than 50 percent mortality was observed or (2) the compound was not tested)"}, {"measurement": "BAW 50 ug/cm2", "setting": "[2]", "result": "A (the compound was tested and at least 50 percent mortality was observed)"}]}]}
